This is an account of results in publication PMC12529164, “Design, Synthesis, Structure–Activity Relationships, and Preliminary Anticancer Properties of Menthol-Modified Coumarin Esters and 3,4-Dihydrocoumarin Derivatives” (ACS Omega, 2025).

Molecules are shown by their SMILES. Like-named read-outs stand apart in the source and are kept apart here.

Data set [1] relates to HaCaT. Description: MTT cytotoxicity assay, normal cells. In kind it is cell-based. Conditions: HaCaT, 72 h, human immortal keratinocytes (normal cells). The protocol:
(§1) The human primary (SW480) and metastatic (SW620) colon cancer, metastatic prostate cancer (PC3), breast adenocarcinoma (MDA-MB-231) and human immortal keratinocyte (HaCaT) cell lines were recruited from the American Type Culture Collection (ATCC). The cells were cultured in the recommended medium according to protocols (RPMI 1640 for PC3, MEM for SW480 and SW620, as well as DMEM for MDA-MB-231 and HaCaT cells) with addition of 10% FBS, penicillin (100 U/mL), and streptomycin (100 μg/mL) and cultured in 37 °C/5% CO2 in a humidified incubator. Then, the cells were passaged at a confluence of 80–90% by a treatment with 0.25% trypsin (Gibco Life Technologies) and used for studies.
(§2) They were added to 96-well plates with seeded normal and cancer cells (1 × 10^4 cells per well) and incubated for 72 h. MTT analysis was performed according to a previous study.

Data set [2] has as its system Danio rerio larvae. Description: In vivo toxicity, maximum tolerated concentration. Conditions: zebrafish larvae, immersion from 96 hpf for 18 h (120 hpf), 5-150 μM tested. The protocol: Zebrafish (Danio rerio, strain AB) was maintained at the Experimental Medicine Center, Medical University of Lublin, Poland. Embryos and larvae up to 120 h postfertilization (hpf) were kept under generally accepted environmental conditions, i.e., in incubators at 28.5 °C, with 14/10 h light/dark cycles. The embryos of the Zebrafish were harvested after the natural reproduction process.
Three compounds showing low IC50 values determined on cancer lines in in vitro tests (2b, 4a) and compound 1a characterized by low cytotoxicity were used for in vivo tests. We also conducted research for coumarin. These compounds were dissolved in dimethyl sulfoxide (DMSO) (Sigma-Aldrich, St. Louis, MO, USA) and diluted in the zebrafish medium (pH 7.1–7.3; 5.0 mM NaCl, 0.17 mM KCl, 0.33 mM CaCl2, 0.33 mM MgSO4) to achieve a final DMSO concentration of 1% w/v. Twenty-four hpf zebrafish embryos were investigated under a light microscope, and […] fertilized embryos (n = 60) were selected and transferred into 48-well plates (5 embryos per well). Larvae were incubated in 1 mL of the zebrafish medium for up to 3 days after fertilization.
On the fourth day postfertilization (96 hpf), the larvae (10 individuals per group) were incubated in solutions of coumarin or its three derivatives (1a, 2b, 4a) at selected concentrations (5, 10, 25, 50, 75, 100, 150 μM), along with control solutions: negative control (zebrafish medium) and solvent control (1% DMSO in zebrafish medium). The maximum tolerated concentration (MTC) was calculated to assess the toxicity of the compounds and extracts. […] Larvae were individually inspected under a microscope for signs of acute locomotor dysfunction, including a weak reaction to light tail stimulation with a fine needle, disrupted posture, body deformities, protruding eyes, slowed or absent heartbeat, and mortality.

Data set [3] deals with tested cancer cell lines (SW480, SW620, PC3, MDA-MB-231). Description: MTT assay, mean over tested cancer cell lines. In kind it is cell-based. The note with it: Homo sapiens, mean of the four cancer cell lines. The protocol:
They were added to 96-well plates with seeded normal and cancer cells (1 × 10^4 cells per well) and incubated for 72 h. MTT analysis was performed according to a previous study. […]
A general note: Formazan colour is commonly taken as a measure of viable cells.

For data set [4], the system named is PC3. As to the kind of experiment: MTT cytotoxicity assay. In kind it is cell-based, human. The protocol: as §1, §2
Data set [5] has as its system SW480. As to the kind of experiment: MTT cytotoxicity assay. In kind it is cell-based, human. The protocol: as §1, §2
Data set [6] deals with MDA-MB-231. Description: MTT cytotoxicity assay. In kind it is cell-based, human. The protocol:
as §1, §2

In data set [7] the test system is SW620. Description: MTT cytotoxicity assay. In kind it is cell-based, human. The protocol:
as §1, §2

The mark [8] stands for this setting: SI = IC50 for normal cell line (HaCaT)/IC50 cancer cell line.

As to `CC(C)[C@@H]1CC[C@@H](C)C[C@H]1OC(=O)c1cc2ccccc2oc1=O` [Compound 1a, (1R,2S,5R)-2-Isopropyl-5-methylcyclohexyl 2-oxo-2H-chromene-3-carboxylate], the IC50 (as a rule, the concentration that gives 50% inhibition) came out at 82.7 ± 3.5 µM in data set [1]; 65.5 µM in data set [3] (Table S7, >100 entered as 100, read-out: mean anticancer IC50); 65.5 µM in data set [3] (read-out: average IC50 against tested cancer cell lines); 57.8 ± 3.87 µM in data set [4] (PC-3, MTT, 72 h, human metastatic prostate cancer); 70.5 ± 2.31 µM in data set [5] (SW480, MTT, 72 h, human primary colon cancer); 76.5 ± 8.85 µM in data set [6] (MDA-MB-231, MTT, 72 h, human breast adenocarcinoma). This molecule also displayed an IC50 in data set [7] (SW-620, MTT, 72 h, human metastatic colon cancer) of 57.3 ± 5.36 µM. Besides, the “maximum tolerated concentration (MTC)” value in data set [2] came to 0 µM. Besides, the “SI PC3” value in data set [4] (setting [8]) was 1.43. Moreover, in data set [5] (setting [8]), the “SI SW480” value is 1.17. The “SI MDA-MB-231” value in data set [6] (setting [8]) worked out at 1.08. For the same molecule, the “SI SW620” value in data set [7] (setting [8]) was 1.44.
Turning to `O=c1ccc2ccccc2o1` [coumarin, 2H-chromen-2-one], the “maximum tolerated concentration (MTC)” value in data set [2] was determined as 100 µM.
